From US11485742B2, “2-azaspiro[3.4]octane derivatives as M4 agonists” (NOVARTIS AG, priority 2019, dated 2022)

How the values were obtained:
Format in all cases: cell-based
[1] = biological target: T1, Cloned human M1 receptor (CHRM1) (Homo sapiens, UniProt P11229); assay: CHRM1 Ca++ Flux Assay (HEK293 M1 cells, agonist mode); details: for Emax: read-out: M1 FDSS PA %; for EC50: geometric mean if tested more than once, read-out: M1 FDSS EC50
T1 construct: expressed in transfected cells; host or cells: HEK293
T1 sequence (P11229 1-460): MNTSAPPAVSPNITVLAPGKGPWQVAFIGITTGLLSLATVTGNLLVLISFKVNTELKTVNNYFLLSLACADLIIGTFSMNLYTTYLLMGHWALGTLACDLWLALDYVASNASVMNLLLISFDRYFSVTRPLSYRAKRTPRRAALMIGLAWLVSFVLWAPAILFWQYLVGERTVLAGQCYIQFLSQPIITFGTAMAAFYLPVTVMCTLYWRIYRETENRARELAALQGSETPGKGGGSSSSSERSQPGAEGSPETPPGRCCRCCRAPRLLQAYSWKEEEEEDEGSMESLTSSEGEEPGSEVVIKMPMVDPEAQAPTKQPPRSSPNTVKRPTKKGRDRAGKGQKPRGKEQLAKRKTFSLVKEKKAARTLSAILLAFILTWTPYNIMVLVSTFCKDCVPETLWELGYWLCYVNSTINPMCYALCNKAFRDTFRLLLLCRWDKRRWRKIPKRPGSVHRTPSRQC
Description: (§1) The above examples were characterized by measuring the intracellular mobilization of Ca^++ ions caused by signaling events mediated by the receptor. The Intra-cellular Calcium flux levels were captured by the highly sensitive Ca^++ indicator, Calcium Assay Kit (BD Biosciences; Catalog Number 640178. The fluorescent activity from all receptors were monitored by the fluorescent imager, FDSS 7000EX (Hamamatsu) over a span of 3 minutes. The change in Calcium flux was readily captured upon activation with the muscarinic orthosteric agonist, Carbachol.
Cloned human M1 receptor (CHRM1) was stably expressed in HEK293 cells and were grown and maintained in a monolayer culture with DMEM/High Glucose (Life Technologies) supplemented with 10% Fetal Bovine Serum, 1×Pen-Strep, and 0.5 mg/mL Geneticin in a humidified atmosphere (5% CO2) at 37° C. The cultures were grown to 90% confluency in T150 flasks (Corning) and washed with 1×DPBS and lifted with 0.05% Trypsin (Life Technologies). The cells were then spun (1K rpm, 3 minutes) and frozen using Recovery Cell Culture Freezing Media (Gibco Technologies). Cells were stored in liquid nitrogen and thawed a day before the assay.
Prior to the day of the assay, stable HEK293 M1 cells were thawed and plated on 384 well black walled clear bottom TC treated plates (Greiner Cat #781091) at 25K cells/well with DMEM/High Glucose supplemented with 10% FBS (Hyclone) Pen-Strep (Life Technologies) and kept overnight in a humidified atmosphere (5% CO2) at 37° C. The following day, cells were loaded with 20 uL Ca^++ dye (BD Biosciences) using Loading Buffer (HBSS +Ca/+Mg, 20 mM HEPES) and placed back in cell incubator for a minimum of 1 hour. The dye was replaced with 45 μL Assay Buffer (HBSS −Ca/−Mg, 20 mM HEPES) and kept at room temperature prior to running on cell imager. Compounds were prepared in Assay Buffer and 5 uL was added to the cells. The FDSS 7000EX (Hamamatsu) was used to acquire Ca++ traces for 3 minutes from cells treated with 11 point dose in triplicate in order to generate dose response curves in agonist mode. All compounds were serially diluted in DMSO then prepared in Assay Buffer for Ca^++ flux studies. The dose response curves were generated from the average of triplicate wells obtained from each data point and used a non-linear regression of four parameter dose response algorithm. The Percent Activity (PA) was measured to EC100 of Carbachol.
(§2) If an Example was tested more than once in an assay, then the values below represent the geometric mean of the results from each independent experiment.

[2] = biological target: T2, human cloned CHRM3 receptor (Homo sapiens, UniProt P20309); assay: CHRM3 Ca++ Flux Assay (M3_CHO cells, agonist mode); details: for Emax: read-out: M3 FDSS PA %; for EC50: agonist mode, geometric mean if tested more than once, read-out: M3 FDSS EC50
T2 construct: expressed in transfected cells; host or cells: CHO-K1 (M3_CHO)
T2 sequence (P20309 whole entry): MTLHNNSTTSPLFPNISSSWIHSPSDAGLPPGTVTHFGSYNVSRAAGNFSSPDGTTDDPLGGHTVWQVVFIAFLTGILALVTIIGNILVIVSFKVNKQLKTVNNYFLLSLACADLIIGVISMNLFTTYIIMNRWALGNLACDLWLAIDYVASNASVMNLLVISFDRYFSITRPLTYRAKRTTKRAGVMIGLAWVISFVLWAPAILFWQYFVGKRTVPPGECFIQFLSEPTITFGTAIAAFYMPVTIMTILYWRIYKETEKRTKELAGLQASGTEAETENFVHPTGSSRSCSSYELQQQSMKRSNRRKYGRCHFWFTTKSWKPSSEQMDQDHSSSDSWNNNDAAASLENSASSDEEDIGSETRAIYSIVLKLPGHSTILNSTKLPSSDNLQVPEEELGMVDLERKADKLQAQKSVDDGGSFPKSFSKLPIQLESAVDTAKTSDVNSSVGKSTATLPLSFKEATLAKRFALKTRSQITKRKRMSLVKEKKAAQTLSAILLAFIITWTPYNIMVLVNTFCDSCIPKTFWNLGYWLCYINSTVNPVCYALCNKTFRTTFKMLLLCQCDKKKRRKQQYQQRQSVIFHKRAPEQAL
Description: as §1
(§3) CHO-K1 cells stably expressing the human cloned CHRM3 receptor (M3_CHO cells) were grown and maintained in a monolayer culture with F12/HAM (Life Technologies) supplemented with 10% Fetal Bovine Serum, IX Pen-Strep, and 0.4 mg/mL Geneticin in a humidified atmosphere (5% CO2) at 37° C. The cultures were grown to 80-90% confluency in T150 flasks (Corning) and washed with 1×DPBS and lifted with 0.05% Trypsin (Life Technologies). The cells were then spun (1K rpm, 3 minutes) and frozen using Recovery Cell Culture Freezing Media (Gibco Technologies). Cells were stored in liquid nitrogen and thawed a day before the assay. A similar procedure was used for cells stably expressing the human cloned CHRM5 receptor (M5_CHO).
(§4) Prior to the day of the assay, stable M3_CHO or M5_CHO cells were thawed and plated on Greiner 384 well black TC treated plates at 12K cells/well in F12/DMEM supplemented with 10% FBS (Hyclone) and kept overnight in a humidified atmosphere (5% CO2) at 37° C. The next day, cells were loaded with Ca^++ dye (BD Biosciences) using Loading Buffer (HBSS +Ca/+Mg, 20 mM HEPES, 2.5 mM Probenecid) and placed back in cell incubator for a minimum of 1 hour. After incubation, the dye was replaced with Assay Buffer (HBSS −Ca/−Mg, 20 mM HEPES, 2.5 mM Probenecid) and kept at room temperature in the dark before running on cell imager. The FDSS 7000EX (Hamamatsu) was used to acquire Ca^+− traces from cells treated with 11 point dose response of compounds in triplicate in order to generate dose response curves in agonist mode. All compounds were serially diluted in DMSO then prepared in Assay Buffer for Ca^++ flux studies. The dose response curves were generated from the average of triplicate wells obtained from each data point and used a non-linear regression of four parameter dose response algorithm. The Percent Activity (PA) was measured to EC100 of Carbachol.
as §2

[3] = biological target: T3, human cloned CHRM5 receptor (Homo sapiens, UniProt P08912); assay: CHRM5 Ca++ Flux Assay (M5_CHO cells, agonist mode); details: for Emax: read-out: M5 FDSS PA %; for EC50: agonist mode, geometric mean if tested more than once, read-out: M5 FDSS EC50
T3 construct: expressed in transfected cells; host or cells: CHO (M5_CHO)
T3 sequence (P08912 1-532): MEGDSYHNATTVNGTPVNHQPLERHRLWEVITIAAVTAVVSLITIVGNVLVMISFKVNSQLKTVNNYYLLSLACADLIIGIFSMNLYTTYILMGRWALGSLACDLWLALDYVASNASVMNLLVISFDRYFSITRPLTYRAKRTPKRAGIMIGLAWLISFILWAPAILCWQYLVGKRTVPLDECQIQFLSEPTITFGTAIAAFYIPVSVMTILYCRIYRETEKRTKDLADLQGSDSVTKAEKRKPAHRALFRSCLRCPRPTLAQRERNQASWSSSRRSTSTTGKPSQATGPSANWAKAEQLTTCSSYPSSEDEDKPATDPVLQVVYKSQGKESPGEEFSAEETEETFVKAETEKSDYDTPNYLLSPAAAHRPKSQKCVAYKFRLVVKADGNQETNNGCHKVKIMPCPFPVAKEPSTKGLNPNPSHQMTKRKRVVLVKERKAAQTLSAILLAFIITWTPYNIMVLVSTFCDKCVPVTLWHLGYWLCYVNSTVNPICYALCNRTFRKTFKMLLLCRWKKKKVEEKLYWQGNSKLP
Description: as §1, §3, §4, §2

[4] = Percent Activity (PA) measured to EC100 of Carbachol

SMILES | Emax ([1]; Percent Activity (PA)) [%] | EC50 [1] [µM] | Emax [2, 4] [%] | EC50 [2] [µM] | Emax [3, 4] [%] | EC50 [3] [µM] | M1 FDSS PA % ([1]; Percent Activity (PA)) [%] | M3 FDSS PA % [2, 4] [%] | M5 FDSS PA % [3, 4] [%]
Cc1nc(COc2ccccc2C2CCN([C@@H]3COC4(C3)CN(c3nncs3)C4)CC2)no1 [Example 5F, (S)-7-(4-(2-((5-methyl-1,2,4-oxadiazol-3-yl)methoxy)phenyl)piperidin-1-yl)-2-(1,3,4-thiadiazol-2-yl)-5-oxa-2-azaspiro[3.4]octane] | 106 | 0.011 | 15 | 11.8 | 35 | 2.53 | – | – | –
Fc1ccc(OC2COC2)c(C2CCN([C@@H]3COC4(C3)CN(c3nncs3)C4)CC2)c1 [Example 5G, (S)-7-(4-(5-fluoro-2-(oxetan-3-yloxy)phenyl)piperidin-1-yl)-2-(1,3,4-thiadiazol-2-yl)-5-oxa-2-azaspiro[3.4]octane] | 88 | 0.311 | 0 | > 25 | 0 | > 25 | – | – | –
Fc1ccc(C2CCOCC2)c(C2CCN([C@@H]3COC4(C3)CN(c3ncco3)C4)CC2)c1 [Example 4W, (S)-7-(4-(5-fluoro-2-(tetrahydro-2H-pyran-4-yl)phenyl)piperidin-1-yl)-2-(oxazol-2-yl)-5-oxa-2-azaspiro[3.4]octane] | 74 | 1.09 | 0 | > 25 | 0 | > 25 | – | – | –
Fc1ccc(OC[C@@H]2COCCO2)c(C2CCN([C@@H]3COC4(C3)CN(c3nnco3)C4)CC2)c1 [Example 1F, (S)-7-(4-(2-(((S)-1,4-dioxan-2-yl)methoxy)-5-fluorophenyl)piperidin-1-yl)-2-(1,3,4-oxadiazol-2-yl)-5-oxa-2-azaspiro[3.4]octane] | 83 | 0.368 | 0 | > 25 | 0 | > 25 | – | – | –
OC[C@H]1C[C@H](Oc2ccc(F)cc2C2CCN([C@@H]3COC4(C3)CN(c3nnco3)C4)CC2)C1 (single isomer, unassigned) [Example 2HH, ((1S,3r)-3-(2-(1-((S)-2-(1,3,4-oxadiazol-2-yl)-5-oxa-2-azaspiro[3.4]octan-7-yl)piperidin-4-yl)-4-fluorophenoxy)cyclobutyl)methanol or ((1R,3s)-3-(2-(1-((S)-2-(1,3,4-oxadiazol-2-yl)-5-oxa-2-azaspiro[3.4]octan-7-yl)piperidin-4-yl)-4-fluorophenoxy)cyclobutyl)methanol] | – | 2.57 | – | > 25 | – | > 25 | 96 | 0 | 0
c1ccc(C2CCN([C@@H]3COC4(C3)CN(c3ncco3)C4)CC2)c(OC2CC3(COC3)C2)c1 [Example 4M, (S)-7-(4-(2-((2-oxaspiro[3.3]heptan-6-yl)oxy)phenyl)piperidin-1-yl)-2-(oxazol-2-yl)-5-oxa-2-azaspiro[3.4]octane] | 49 | 2.81 | 0 | > 25 | 0 | > 25 | – | – | –
CC(C)(C#N)COc1ccc(F)cc1C1CCN([C@@H]2COC3(C2)CN(c2nnco2)C3)CC1 [Example 1E, (S)-3-(2-(1-(2-(1,3,4-oxadiazol-2-yl)-5-oxa-2-azaspiro[3.4]octan-7-yl)piperidin-4-yl)-4-fluorophenoxy)-2,2-dimethylpropanenitrile] | 84 | 0.563 | 0 | > 25 | 0 | > 25 | – | – | –
Fc1cc(OCC2(F)COC2)c(C2CCN([C@@H]3COC4(C3)CN(c3ncco3)C4)CC2)cc1F [Example 4P, (S)-7-(4-(4,5-difluoro-2-((3-fluorooxetan-3-yl)methoxy)phenyl)piperidin-1-yl)-2-(oxazol-2-yl)-5-oxa-2-azaspiro[3.4]octane] | 89 | 0.334 | 0 | > 25 | 0 | > 25 | – | – | –
COc1ccccc1C1CCN([C@@H]2COC3(C2)CN(c2ncns2)C3)CC1 [Example 5B, (S)-7-(4-(2-methoxyphenyl)piperidin-1-yl)-2-(1,2,4-thiadiazol-5-yl)-5-oxa-2-azaspiro[3.4]octane] | 22 | 1.57 | 0 | > 25 | 0 | > 25 | – | – | –
Fc1cc(F)c(OC2CCOCC2)c(C2CCN([C@@H]3COC4(C3)CN(c3nnco3)C4)CC2)c1 [Example 2BB, (S)-7-(4-(3,5-difluoro-2-((tetrahydro-2H-pyran-4-yl)oxy)phenyl)piperidin-1-yl)-2-(1,3,4-oxadiazol-2-yl)-5-oxa-2-azaspiro[3.4]octane] | 65 | 7 | 0 | > 25 | 0 | > 25 | – | – | –
Fc1cc(O[C@@H]2CCOC2)c(C2CCN([C@@H]3COC4(C3)CN(c3nncs3)C4)CC2)cc1F [Example 5M, (S)-7-(4-(4,5-difluoro-2-(((R)-tetrahydrofuran-3-yl)oxy)phenyl)piperidin-1-yl)-2-(1,3,4-thiadiazol-2-yl)-5-oxa-2-azaspiro[3.4]octane] | 66 | 0.786 | 0 | > 25 | 0 | > 25 | – | – | –
